One may read the IC50 as the point on the concentration scale where inhibition reaches its midpoint.

The target in the experiment is T1, human kinase Mps-1 (Homo sapiens, UniProt P33981).
T1 construct: N-terminally GST-tagged human full length recombinant Mps-1 kinase; purchased Invitrogen, Karslruhe, Germany PV4071
T1 sequence (P33981 1-857): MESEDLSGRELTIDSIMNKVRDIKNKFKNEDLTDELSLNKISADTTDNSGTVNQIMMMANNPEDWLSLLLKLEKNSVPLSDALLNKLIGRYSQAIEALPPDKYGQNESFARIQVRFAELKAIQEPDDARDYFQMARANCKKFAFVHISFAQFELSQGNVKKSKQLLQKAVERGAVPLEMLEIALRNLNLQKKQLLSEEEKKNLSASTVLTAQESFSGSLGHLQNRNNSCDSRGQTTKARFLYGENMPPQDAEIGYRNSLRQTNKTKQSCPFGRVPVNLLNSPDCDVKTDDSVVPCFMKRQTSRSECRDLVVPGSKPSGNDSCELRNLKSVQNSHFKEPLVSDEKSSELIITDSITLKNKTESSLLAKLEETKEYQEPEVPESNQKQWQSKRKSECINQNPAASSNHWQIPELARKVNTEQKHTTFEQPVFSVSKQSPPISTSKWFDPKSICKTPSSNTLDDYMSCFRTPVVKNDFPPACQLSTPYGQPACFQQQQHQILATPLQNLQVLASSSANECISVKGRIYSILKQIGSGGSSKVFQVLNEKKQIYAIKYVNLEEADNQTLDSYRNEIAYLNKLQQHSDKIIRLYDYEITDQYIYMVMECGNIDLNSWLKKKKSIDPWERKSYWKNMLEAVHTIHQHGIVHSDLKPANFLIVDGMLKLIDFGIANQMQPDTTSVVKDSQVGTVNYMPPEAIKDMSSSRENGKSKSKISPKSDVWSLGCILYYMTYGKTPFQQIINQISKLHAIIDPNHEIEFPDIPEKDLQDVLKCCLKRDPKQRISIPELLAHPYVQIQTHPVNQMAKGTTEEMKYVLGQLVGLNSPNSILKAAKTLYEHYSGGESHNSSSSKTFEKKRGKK
As to the kind of experiment: Mps-1 kinase assay (HTRF). It is filed as biochemical. The settings on record: lowATP; mean; read-out: Mps1 lowATP mean IC50. In outline:
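HTRF readout: EDTA-stopped reactions incubated 1 h with europium anti-phospho(Ser/Thr) antibody and streptavidin-XLent, emission ratio 665/620 nm after 350 nm excitation. Kinase step: compound pre-bound 15 min to ~1 nM GST-Mps-1, then 60 min at 22 °C with ATP and biotin-peptide substrate; inhibition scaled between no-inhibitor (0%) and no-enzyme (100%) controls.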
`CCNc1nc2ccccc2n2c(-c3ccc(C(=O)NC4CC4)cc3)cnc12` [Example 2-19, N-cyclopropyl-4-[4-(ethylamino)imidazo[1,2-a]quinoxalin-1-yl]benzamide]: the IC50 turned out to be 94 nM.
For `CN(C)CCCNc1nc2ccccc2n2c(-c3ccc(C(=O)NC4CC4)cc3)cnc12` [Example 2-20, N-cyclopropyl-4-(4-{[3-(dimethylamino)propyl]amino}imidazo[1,2-a]quinoxalin-1-yl)benzamide], the IC50 amounted to 744 nM.
To `NS(=O)(=O)c1ccc(CCNc2nc3ccccc3n3c(-c4ccc(C(=O)NC5CC5)cc4)cnc23)cc1` [Example 2-21, N-cyclopropyl-4-(4-{[2-(4-sulfamoylphenyl)ethyl]amino}imidazo[1,2-a]quinoxalin-1-yl)benzamide] belongs 48.1 nM; to `O=C(NC1CC1)c1ccc(-c2cnc3c(NCCc4cccc(F)c4)nc4ccccc4n23)cc1` [Example 2-22, N-cyclopropyl-4-(4-{[2-(3-fluorophenyl)ethyl]amino}imidazo[1,2-a]quinoxalin-1-yl)benzamide], 312 nM.
Turning to `O=C(NC1CC1)c1ccc(-c2cnc3c(NCC4CC4)nc4ccccc4n23)cc1` [Example 2-23, N-cyclopropyl-4-{4-[(cyclopropylmethyl)amino]imidazo[1,2-a]quinoxalin-1-yl}benzamide], the IC50 stood at 24.1 nM.
Turning to `O=C(NC1CC1)c1ccc(-c2cnc3c(NCCN4CCOCC4)nc4ccccc4n23)cc1` [Example 2-24, N-cyclopropyl-4-(4-{[2-(morpholin-4-yl)ethyl]amino}imidazo[1,2-a]quinoxalin-1-yl)benzamide], the IC50 was found to be 127 nM.
For the compound `NS(=O)(=O)c1ccc(CNc2nc3ccccc3n3c(-c4ccc(C(=O)NC5CC5)cc4)cnc23)cc1` [Example 2-25, N-cyclopropyl-4-{4-[(4-sulfamoylbenzyl)amino]imidazo[1,2-a]quinoxalin-1-yl}benzamide], the IC50 is 160 nM.
To `O=C(NC1CC1)c1ccc(-c2cnc3c(NCc4cccnc4)nc4ccccc4n23)cc1` [Example 2-26, N-cyclopropyl-4-{4-[(pyridin-3-ylmethyl)amino]imidazo[1,2-a]quinoxalin-1-yl}benzamide] belongs 99.6 nM; to `O=C(NC1CC1)c1ccc(-c2cnc3c(NCCCc4ccccc4)nc4ccccc4n23)cc1` [Example 2-27, N-cyclopropyl-4-{4-[(3-phenylpropyl)amino]imidazo[1,2-a]quinoxalin-1-yl}benzamide], 282 nM; to `O=C(NC1CC1)c1ccc(-c2cnc3c(NCc4ccc5c(c4)OCO5)nc4ccccc4n23)cc1` [Example 2-28, 4-{4-[(1,3-benzodioxol-5-ylmethyl)amino]imidazo[1,2-a]quinoxalin-1-yl}-N-cyclopropylbenzamide], 61.4 nM.
Turning to `O=C(NC1CC1)c1ccc(-c2cnc3c(NCCOc4ccccc4)nc4ccccc4n23)cc1` [Example 2-29, N-cyclopropyl-4-{4-[(2-phenoxyethyl)amino]imidazo[1,2-a]quinoxalin-1-yl}benzamide], the IC50 turned out to be 443 nM.
For the compound `O=C(NC1CC1)c1ccc(-c2cnc3c(NCCc4ccncc4)nc4ccccc4n23)cc1` [Example 2-30, N-cyclopropyl-4-(4-{[2-(pyridin-4-yl)ethyl]amino}imidazo[1,2-a]quinoxalin-1-yl)benzamide], the IC50 was determined as 121 nM.
Take `O=C(NC1CC1)c1ccc(-c2cnc3c(NCCCCN4CCCC4)nc4ccccc4n23)cc1` [Example 2-31, N-cyclopropyl-4-(4-{[4-(pyrrolidin-1-yl)butyl]amino}imidazo[1,2-a]quinoxalin-1-yl)benzamide]: the IC50 turned out to be 321 nM.
The value for `CS(=O)(=O)Nc1ccc(Nc2nc3ccccc3n3c(-c4ccc(C(=O)NC5CC5)cc4)cnc23)cc1` [Example 2-32, N-cyclopropyl-4-[4-({4-[(methylsulfonyl)amino]phenyl}amino)imidazo[1,2-a]quinoxalin-1-yl]benzamide] was 202 nM.
The value for `O=C(NC1CC1)c1ccc(-c2cnc3c(NCCN4CCNC4=O)nc4ccccc4n23)cc1` [Example 2-33, N-cyclopropyl-4-(4-{[2-(2-oxoimidazolidin-1-yl)ethyl]amino}imidazo[1,2-a]quinoxalin-1-yl)benzamide] was 1150 nM; that for `N#Cc1ccc(CNc2nc3ccccc3n3c(-c4ccc(C(=O)NC5CC5)cc4)cnc23)cc1` [Example 2-34, 4-{4-[(4-cyanobenzyl)amino]imidazo[1,2-a]quinoxalin-1-yl}-N-cyclopropylbenzamide] was 287 nM; that for `O=C(NC1CC1)c1ccc(-c2cnc3c(NCCc4ccc(F)cc4)nc4ccccc4n23)cc1` [Example 2-35, N-cyclopropyl-4-(4-{[2-(4-fluorophenyl)ethyl]amino}imidazo[1,2-a]quinoxalin-1-yl)benzamide] was 539 nM.
To `O=C(NC1CC1)c1ccc(-c2cnc3c(NCCc4cccnc4)nc4ccccc4n23)cc1` [Example 2-36, N-cyclopropyl-4-(4-{[2-(pyridin-3-yl)ethyl]amino}imidazo[1,2-a]quinoxalin-1-yl)benzamide] belongs 129 nM; to `Cn1ccc(Nc2nc3ccccc3n3c(-c4ccc(C(=O)NC5CC5)cc4)cnc23)n1` [Example 2-37, N-cyclopropyl-4-{4-[(1-methyl-1H-pyrazol-3-yl)amino]imidazo[1,2-a]quinoxalin-1-yl}benzamide], 1050 nM.
With `NS(=O)(=O)CCNc1nc2ccccc2n2c(-c3ccc(C(=O)NC4CC4)cc3)cnc12` [Example 2-38, N-cyclopropyl-4-{4-[(2-sulfamoylethyl)amino]imidazo[1,2-a]quinoxalin-1-yl}benzamide], the IC50 is 42.2 nM.
To `COc1cc(C(=O)NC2CCN(C)CC2)ccc1Nc1nc2ccccc2n2c(-c3ccc(C(=O)NC4CC4)cc3)cnc12` [Example 2-39, 4-({1-[4-(cyclopropylcarbamoyl)phenyl]imidazo[1,2-a]quinoxalin-4-yl}amino)-3-methoxy-N-(1-methylpiperidin-4-yl)benzamide] belongs 786 nM; to `CCCNc1nc2ccc(F)cc2n2c(-c3ccc(C(=O)NC4CC4)cc3)cnc12` [Example 2-40, N-cyclopropyl-4-[8-fluoro-4-(propylamino)imidazo[1,2-a]quinoxalin-1-yl]benzamide], 28.5 nM.
To `O=C(NC1CC1)c1ccc(-c2cnc3c(NCCO)nc4ccc(F)cc4n23)cc1` [Example 2-41, N-cyclopropyl-4-{8-fluoro-4-[(2-hydroxyethyl)amino]imidazo[1,2-a]quinoxalin-1-yl}benzamide] belongs 212 nM; to `O=C(NC1CC1)c1ccc(-c2cnc3c(NCCCN4CCOCC4)nc4ccc(F)cc4n23)cc1` [Example 2-42, N-cyclopropyl-4-(8-fluoro-4-{[3-(morpholin-4-yl)propyl]amino}imidazo[1,2-a]quinoxalin-1-yl)benzamide], 335 nM.
With `CC(C)CCNc1nc2ccc(F)cc2n2c(-c3ccc(C(=O)NC4CC4)cc3)cnc12` [Example 2-43, N-cyclopropyl-4-{8-fluoro-4-[(3-methylbutyl)amino]imidazo[1,2-a]quinoxalin-1-yl}benzamide], the IC50 came out at 35.9 nM.
The value for `O=C(NC1CC1)c1ccc(-c2cnc3c(NCCCN4CCCC4=O)nc4ccc(F)cc4n23)cc1` [Example 2-44, N-cyclopropyl-4-(8-fluoro-4-{[3-(2-oxopyrrolidin-1-yl)propyl]amino}imidazo[1,2-a]quinoxalin-1-yl)benzamide] was 325 nM; that for `COCCNc1nc2ccc(F)cc2n2c(-c3ccc(C(=O)NC4CC4)cc3)cnc12` [Example 2-45, N-cyclopropyl-4-{8-fluoro-4-[(2-methoxyethyl)amino]imidazo[1,2-a]quinoxalin-1-yl}benzamide] was 255 nM.
To `O=C(NC1CC1)c1ccc(-c2cnc3c(NCc4ccc(F)cc4)nc4ccc(F)cc4n23)cc1` [Example 2-46, N-cyclopropyl-4-{8-fluoro-4-[(4-fluorobenzyl)amino]imidazo[1,2-a]quinoxalin-1-yl}benzamide] belongs 76.8 nM.
The value for `O=C(NC1CC1)c1ccc(-c2cnc3c(NCCCCO)nc4ccc(F)cc4n23)cc1` [Example 2-47, N-cyclopropyl-4-{8-fluoro-4-[(4-hydroxybutyl)amino]imidazo[1,2-a]quinoxalin-1-yl}benzamide] was 66.4 nM.
For `O=C(NC1CC1)c1ccc(-c2cnc3c(NCc4cccs4)nc4ccc(F)cc4n23)cc1` [Example 2-48, N-cyclopropyl-4-{8-fluoro-4-[(thiophen-2-ylmethyl)amino]imidazo[1,2-a]quinoxalin-1-yl}benzamide], the IC50 turned out to be 40.3 nM.

The record behind these values is patent US8729082B2, “Substituted imidazoquinoxalines” (Bayer Intellectual Property GmbH, priority 2009, dated 2014).
